In patent US8440613B2, “Controlling diseases caused by trichomonadida” (Bayer Intellectual Property GmbH, priority 2008, dated 2013):

Key:
[1] = tested on: Heterakis spumosa; conditions: murine nematode Heterakis spumosa; oral dose; refs (13, 15); cited from earlier work
[2] = tested on: Ascaridia galli; conditions: cited from earlier work
[3] = tested on: Heterakis spumosa; experiment: Anthelmintic activity against Heterakis spumosa in mice; format: in vivo; conditions: Heterakis spumosa (mouse); treated on four consecutive days 35 days post-infection; worms counted day 7 after treatment
Description: Male mice (strain Bor CFW, body weight between 25 and 30 g) are kept in Makrolon cages (3 animals/cage) and fed ad lib with water and SNIFF rat food (10 mm pellets). Mice are infected with Heterakis spumosa by oral administration of 90 embryonated eggs. The eggs had been obtained from female worms which had been isolated from the mices colon 40 days post-infection. The eggs were incubated for a further 3 weeks at 37° C. 35 days post-infection, the mice were treated with the respective dose of PF1022A or emodepside on four consecutive days. PF1022A is suspended in Cremophor EL. On day 7 after the treatment, the mice are sacrificed, the ileum/caecum/colon region is removed, and the worms are counted with the naked eye. The ratio of the number of expelled worms in percent of the total number of worms in untreated, infected control animals is defined as the measure for the anthelmintic activity.

SMILES	Dose at which active against Heterakis spumosa [1]	Dose with full activity ([2]; Ascaridia galli (chicken))	Dose at which the compound acts against Ascaridia galli ([2]; Ascaridia galli in chickens, ref (16))	Dose with full activity [3]
CC(C)CC1C(=O)OC(Cc2ccccc2)C(=O)N(C)C(CC(C)C)C(=O)OC(C)C(=O)N(C)C(CC(C)C)C(=O)OC(Cc2ccccc2)C(=O)N(C)C(CC(C)C)C(=O)OC(C)C(=O)N1C (stereo not drawn) [PF1022A]	50 mg/kg	2 mg/kg	2 mg/kg	50 mg/kg
CC(C)CC1C(=O)OC(Cc2ccc(N3CCOCC3)cc2)C(=O)N(C)C(CC(C)C)C(=O)OC(C)C(=O)N(C)C(CC(C)C)C(=O)OC(Cc2ccc(N3CCOCC3)cc2)C(=O)N(C)C(CC(C)C)C(=O)OC(C)C(=O)N1C [Emodepside, cyclo[(R)-lactoyl-N-methyl-L-leucyl-(R)-3-(p-morpholinophenyl)lactoyl-N-methyl-L-leucyl-(R)-lactoyl-N-methyl-L-leucyl-(R)-3-(p-morpholinophenyl)lactoyl-N-methyl-L-leucyl]]	1 to 10 mg/kg			1 to 10 mg/kg
